Measurements published in patent US10407712B2, “Methods, compositions and kits for high throughput kinase activity screening using mass spectrometry and stable isotopes” (President and Fellows of Harvard College, priority 2008, dated 2019).

What was measured:
HEK293 cells [1] = experiment: KAYAK of lysates from HEK293 cells pretreated with inhibitors before mitogen stimulation; assay type: cell-based, human
Procedure: For drug inhibition studies, cells were pretreated with U0126 (5 μM) or Wortmannin (100 nM) for 1 hr prior to hormone stimulation.
(§1) Peptides were synthesized, purified and quantified as described in Yu et al. 2009 Proc Natl Acad Sci USA 106: 11606-11611, hereby incorporated by reference herein in its entirety. Each substrate peptide (250 pmol) was mixed to a final concentration of 5 μM in the 50 μL reaction mixture. Alternatively, reactions were performed using 6 μg cell lysate aliquotes mixed to a final volume of 20 μl. Cell lysate or other kinase source was added to the substrate mixture in 25 mM Tris-Cl, pH 7.5, containing 5 mM ATP, 7.5 mM MgCl2, 0.2 mM EGTA, 7.5 mM β-glycerophosphate, 0.1 mM Na3VO4, and 0.1 mM DTT. The reaction was incubated at 25° C. for 60 min and then terminated by the addition of 100 μl of 1% trifluoroacetic acid (TFA) containing a known amount of an internal standard (typically 20 pmol). Alternatively, the reaction was incubated at 20° C. for 45 min before termination with TFA.
The KAYAK method was applied to measure the effect of pharmacological inhibitors or siRNA-mediated knockdown of kinase pathways after mitogen stimulation (see FIGS. 5A-5D and 8 for data obtained by immunoblotting analysis of cell lysates). […] EGF stimulated cell lysates strongly phosphorylated peptides B6, C6, C11 and G5 and these effects were blocked by pretreating cells with the MEK-specific inhibitor U0126.
In contrast, phosphorylation levels of these peptides were not changed as a result of insulin stimulation. […] PMA activates the MAPK pathway by activating the upstream kinase, PKC (Blenis et al. 1993 Proc Natl Acad Sci USA 90: 5889-5892). Because the observed increase in phosphorylation was reversed by prior treatment of cells with U0126, it was concluded that these peptides were not PKC substrates. Rather they were likely phosphorylated by kinases downstream of the MAPK pathway.
(§2) It was observed that basal phosphorylation of these peptides was not affected by knockdown and likely was the result of remaining RSK isoforms or other basophilic kinases (FIG. 5C).

HEK293 cells [2] = experiment: Single-reaction KAYAK of HEK293 cells treated with kinase inhibitors followed by insulin stimulation; assay type: cell-based, human; conditions: HEK293, inhibitor 30 min then 100 nM insulin 30 min
HEK293 cell lysates [3] = experiment: KAYAK in vitro kinase assay, individual reactions, lysates of starved, insulin- or EGF-stimulated HEK293 cells; assay type: biochemical, human; conditions: for E: changed phosphorylation in EGF stimulated condition: EGF-stimulated compared to starved HEK293 cells; for increase in phosphorylation after EGF: EGF-stimulated vs serum-starved HEK293 lysate; for increase in phosphorylation after insulin: insulin-stimulated vs serum-starved HEK293 lysate
Procedure: (§3) For stimulation of HEK293 cells or HeLa lines, cells were treated with insulin (100 nM; 10-30 min) EGF (50 ng/ml; 10 min) or phorbol 12-myristate 13-acetate (PMA; 50 or 100 ng/ml; 10 -30 min) at 37° C. for the indicated times after overnight serum-starvation.
(§4) For cell lysis, the media were removed, and cells were washed with ice-cold phosphate-buffered saline (PBS) and lysed with ice-cold lysis buffer (10 mM K2HPO4 pH 7.5, 1 mM EDTA, 10 mM MgCl2, 50 mM β-glycerophosphate, 5 mM EGTA, 0.5% Nonidet P-40, 0.1% Brij 35, 0.1% deoxycholic acid, 1mM sodium orthovanadate, 1mM phenylmethyl-sulfonyl fluoride, 5 μg/ml leupeptin and 5 μg/ml pepstatin A). Lysates were centrifuged at 10,000 rpm for 10 min to remove cell debris, and clear supernatant was used for immunoblotting and in vitro kinase assays. Protein concentration was determined by Bradford assay (Biorad, Hercules, Calif.).
as §1
(§5) Forty-five individual in vitro kinase reaction mixtures were combined and desalted by using Sep-Pak C18 cartridge (Waters, Milford, Mass.). Phosphopeptides were enriched by immobilized metal ion chromatography (IMAC) with 20 μl of beads (Phos-Select iron affinity gel; Sigma, St. Louis, Mo.) and subsequently desalted by using Empore C18 solid phase extraction disks (3M, St. Paul, Minn.) as described previously.
(§6) Quantitation of the target peptide-internal standard ratios was performed by first constructing the extracted ion chromatogram for the most abundant charge state for each peptide using a ±10 ppm window. Chromatograms were integrated using Qual/Quan browser (Xcalibur 2.0.5, Thermo Fisher, San Jose, Calif.). Since the phosphorylated peptides generated from the in vitro kinase reactions were chemically identical to the internal standards, they were assumed to have the same ionization efficiency. Therefore, the amount of each phosphorylated peptide was calculated by direct ratio to the internal standard level.
(§7) To test substrate suitability in a multiplexed assay, the phosphorylation activities were measured using […] of each substrate peptide, 6 μg lysate, and 5 mM ATP in a plate format. Reactions proceeded for 60 minutes followed by acidification and the addition of isotope-labeled reference peptides. After pooling 45 samples, phosphopeptide enrichment was followed by liquid-chromatography (LC) separation and on-line peptide detection by high-resolution mass spectrometry.
The ability of the peptides to report specific changes in kinase activation after pathway stimulation was examined herein. Lysates from HEK293 cells were collected after insulin or EGF treatment and were compared to their activities in the serum-starved state using the KAYAK approach. Western blot analysis of lysates from cells in which the PI3K and MAPK pathways were activated, as indicated by elevated phospho-Akt and phospho-ERK1/2 levels, respectively, is shown in FIG. 1D. […]

HeLa cell lysates = experiment: KAYAK in vitro kinase assay, lysates of asynchronous, G1/S- or G2/M-arrested HeLa cells; assay type: biochemical, human; conditions: G2/M phase compared to asynchronously growing HeLa cells
Procedure: For cell cycle examples, HeLa cells were synchronized by double thymidine block for G1/S-arrest and by 0.2 μg/ml nocodazole for G2/M-arrest as described (Dephoure et al. 2008 Proc Natl Acad Sci USA 105: 10762-10767). Synchronization was confirmed by flow cytometry.
as §4, §1, §5, §6, §7
In order to examine target peptides with cell-cycle-dependent phosphorylation, kinase activities in asynchronously growing HeLa cells were profiled and the profiles were compared with those of cells synchronized in G1/S and G2/M phase using a double-thymidine block and nocodazole arrest, respectively (FIG. 3B).

activated, purified Akt = target: T1, activated, purified Akt (Homo sapiens, UniProt P31749); experiment: In vitro peptide phosphorylation by purified Akt; assay type: biochemical; conditions: control, 2 ng purified kinase
T1 construct: Purified human active kinases of Akt1 (full length); purchased Cell Signaling Technology (Danvers, Mass.)
T1 sequence (P31749 whole entry): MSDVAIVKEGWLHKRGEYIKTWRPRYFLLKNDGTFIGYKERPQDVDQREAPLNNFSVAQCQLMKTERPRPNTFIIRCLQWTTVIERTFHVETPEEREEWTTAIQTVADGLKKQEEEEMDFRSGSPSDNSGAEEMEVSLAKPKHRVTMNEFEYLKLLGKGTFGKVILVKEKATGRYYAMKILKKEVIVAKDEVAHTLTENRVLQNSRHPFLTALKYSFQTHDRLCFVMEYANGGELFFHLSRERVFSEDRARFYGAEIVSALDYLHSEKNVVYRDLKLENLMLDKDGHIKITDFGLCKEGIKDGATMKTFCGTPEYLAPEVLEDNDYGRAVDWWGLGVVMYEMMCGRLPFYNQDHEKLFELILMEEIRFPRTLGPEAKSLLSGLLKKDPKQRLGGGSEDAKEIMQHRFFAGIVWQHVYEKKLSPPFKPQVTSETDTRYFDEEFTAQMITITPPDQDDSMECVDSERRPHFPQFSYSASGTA
Source text: (§8) Reaction mixture was supplemented with 0.1% BSA. Other conditions were the same as in FIG. 10A.
(§9) Purified human active kinases of Akt1 (full length), extracellular signal-regulated kinase 1 (ERK1, 1-379), mitogen-activated protein kinase kinase 1 (MEK1, 1-393), 90 kDa ribosomal S6 kinases 1 (RSK1, 1-735), cAMP-dependent protein kinase (PKA) catalytic subunit-α (PKA Cα, 1-351), protein kinase Cα (PKCα, full length), epidermal growth factor (EGF) receptor (EGFR, 672-1210), platelet-derived growth factor (PDGF) receptor α (PDGFRα, 550-1090), vascular endothelial growth factor (VEGF) receptor 1 (VEGFR1 784-1338), Src (full length), casein kinase 2 (CK2, full length), Aurora A (1-403), AMP-activated protein kinase α1β1γ1 (AMPK α1β1γ1, full length), glycogen synthase kinase-3α (GSK-3α, 1-483) and MAP/microtubule affinity-regulating kinase 1 (MARK 1, full length) were obtained from Cell Signaling Technology (Danvers, Mass.). Cdc2/cyclin B1 (full length) and insulin-like growth factor (IGF)-I receptor (IGFIR, 959-1367) were obtained from Upstate (Temecula, Calif.).
Peptides were synthesized, purified and quantified as described in Yu et al. 2009 Proc Natl Acad Sci USA 106: 11606-11611, hereby incorporated by reference herein in its entirety. […] Alternatively, reactions were performed using 6 μg cell lysate aliquotes mixed to a final volume of 20 μl. […]

recombinant RSK1 = target: T2, recombinant RSK1 (Homo sapiens, UniProt Q15418); experiment: In vitro peptide phosphorylation by purified RSK; assay type: biochemical
T2 construct: 90 kDa ribosomal S6 kinases 1 (RSK1, 1-735); purchased Cell Signaling Technology (Danvers, Mass.)
T2 sequence (Q15418 whole entry): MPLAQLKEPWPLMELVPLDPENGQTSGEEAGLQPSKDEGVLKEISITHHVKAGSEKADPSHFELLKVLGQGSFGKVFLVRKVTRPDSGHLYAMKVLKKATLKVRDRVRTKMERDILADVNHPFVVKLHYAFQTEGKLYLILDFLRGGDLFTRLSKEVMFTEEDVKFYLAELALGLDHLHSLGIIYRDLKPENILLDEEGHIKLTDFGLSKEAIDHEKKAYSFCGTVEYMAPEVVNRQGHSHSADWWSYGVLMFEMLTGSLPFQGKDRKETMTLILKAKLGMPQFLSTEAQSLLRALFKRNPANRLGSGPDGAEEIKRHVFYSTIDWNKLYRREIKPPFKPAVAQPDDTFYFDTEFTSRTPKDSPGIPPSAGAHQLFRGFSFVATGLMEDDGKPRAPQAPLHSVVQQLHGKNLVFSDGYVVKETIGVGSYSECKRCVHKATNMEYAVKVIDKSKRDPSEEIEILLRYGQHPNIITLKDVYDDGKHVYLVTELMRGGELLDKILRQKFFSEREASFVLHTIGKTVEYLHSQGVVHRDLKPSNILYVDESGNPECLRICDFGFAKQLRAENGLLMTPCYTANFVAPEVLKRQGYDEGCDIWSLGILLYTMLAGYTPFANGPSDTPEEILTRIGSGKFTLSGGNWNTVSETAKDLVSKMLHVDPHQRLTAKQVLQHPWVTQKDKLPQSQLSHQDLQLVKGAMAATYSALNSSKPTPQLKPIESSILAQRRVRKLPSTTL
Source text: as §8, §9
as §1, with “Each substrate peptide (250 pmol) was mixed to a final concentration of 5 μM in the 50 μL reaction mixture.” left out
as §2

HEK293 cell lysates [4] = experiment: Single-reaction 90-substrate KAYAK assay, HEK293 lysates with or without insulin; assay type: biochemical, human; conditions: for phosphorylation in response to insulin stimulation: 5 μM each peptide, HEK293 lysate
Procedure: as §3
Alternatively, cells were washed with PBS once and lysed with ice-cold lysis buffer, 10 mM potassium phosphate, pH 7.0, containing 0.5% NP-40, 0.1% Brij 35, 0.1% deoxycholic acid, 1 mM ethylenediaminetetraacetic acid (EDTA), 5 mM ethylene glycol tetraacetic acid (EGTA), 10 mM MgCl2, 50 mM β-glycerophosphate, 1 mM Na3VO4, 2 mM dithiothreitol (DTT) and protease inhibitor cocktail (Complete, Roche Applied Science, Indianapolis, Ind.). Homogenates were centrifuged at 10,000 rpm for 15 min at 4° C., and the supernatant was used as lysate. Protein concentration was quantified by a modified Bradford assay (Pierce).
as §1
Internal standard heavy peptides (5 pmol each) were added as a mixture to the terminated reactions followed by desalting with a solid phase extraction cartridge (SepPak tC18 (50 mg), Waters, Milford, Mass.). Phosphopeptides were enriched as described (Villen et al. 2008 Nat Protoc 3: 1630-1638). […]
For KAYAK analyses, phosphopeptides were dissolved in 5% FA and injected onto a 125-μm-internal diameter fused silica column packed with Magic C18 AQ material (Michrom Bioresources, Auburn, Calif.). Peptides were separated using a two-solvent system: solvent A (0.125% FA and 3% ACN in H2O), solvent B (0.125% FA in ACN) over 32 min gradient, and eluting peptides were directly analyzed using an LTQ-Orbitrap mass spectrometer (Thermo Scientific, San Jose, Calif.) equipped with the electron transfer dissociation option. […]

Compound | effect on insulin-stimulated phosphorylation of peptide E11 (HEK293 cells [2]) | E: changed phosphorylation in EGF stimulated condition (HEK293 cell lysates [3]) | G2/M: changed phosphorylation (HeLa cell lysates) | phosphorylation in response to insulin stimulation (HEK293 cell lysates [4]) | increase in phosphorylation after EGF (HEK293 cell lysates [3]) [fold] | increase in phosphorylation after insulin (HEK293 cell lysates [3]) [fold] | also measured
N#CC(=C(/N)Sc1ccccc1N)/C(C#N)=C(\N)Sc1ccccc1N [U0126] | blocked | – | – | – | – | – | effect on EGF-stimulated phosphorylation of peptides B6, C6, C11 and G5 (HEK293 cells [1]; 5 μM, 1 hr pretreatment, HEK293): blocked; RSK-equivalent activity of lysate, peptide C6 as substrate (HEK293 cells [1]; cells pretreated with U0126 then stimulated with EGF, EGF alone approximately 0.6 ng per μg): 0.2 ng RSK/μg lysate; effect on PMA-induced increase in phosphorylation of RSK peptides (HEK293 cells [1]; prior treatment of cells, HEK293): reversed
TKRSGSVYEPPFR (The sequence was designed and synthesized) [C6] | – | + (A change of more +2 fold and −2 fold is indicated by “+” and “−”, respectively.) | − (A change of more +2 fold and −2 fold is indicated by “+” and “−”, respectively.) | – | – | – | phosphorylation by Akt (activated, purified Akt): not significantly phosphorylated; phosphorylation by recombinant RSK1 in vitro (recombinant RSK1): robustly phosphorylate
RPRAATFPFR (The sequence was designed and synthesized) [A3] | – | + (A change of more +2 fold and −2 fold is indicated by “+” and “−”, respectively.) | – | increased phosphorylation | 2.9 | 4.6 | I: changed phosphorylation in insulin stimulated condition (HEK293 cell lysates [3]; insulin-stimulated compared to starved HEK293 cells): ++ (A change of more than +4 and −4 fold is indicated by “++” and “−−”, respectively.)
RKRLISSVEDPFR (The sequence was designed and synthesized) [E11] | – | + (A change of more +2 fold and −2 fold is indicated by “+” and “−”, respectively.) | − (A change of more +2 fold and −2 fold is indicated by “+” and “−”, respectively.) | increased phosphorylation | 2.3 | 1.7 | increase of phosphorylation rate with insulin (HEK293 cell lysates [4]; HEK293): more than 2 fold
O=c1[nH]c2ccccc2n1C1CCN(Cc2ccc(-c3nc4cc5[nH]cnc5cc4nc3-c3ccccc3)cc2)CC1 [Akt inhibitor VIII] | – | – | – | – | – | – | effect on phosphorylation rate of the A3 peptide (HEK293 cells [2]): decreased
C[S+]([O-])c1ccc(-c2nc(-c3ccncc3)c(-c3ccc(F)cc3)[nH]2)cc1 (stereo not drawn) [SB203580] | paradoxical upregulation | – | – | – | – | – | –
